{"source": "paper PMC3237458", "about": "“PEGylation Potentiates the Effectiveness of an Antagonistic Peptide That Targets the EphB4 Receptor with Nanomolar Affinity” (PLoS ONE, 2011)", "origin": "cited, not measured here", "tested_on": "EphB4", "conditions": "cell culture; cited from earlier work", "method": "An explanation for the discrepancy in the potency of the peptide in biochemical and cell culture assays could be that TNYL-RAW is susceptible to degradation by proteases present in cell culture medium. For example, trypsin-like proteases are l ... || Despite the low nanomolar EphB4 binding affinity of TNYL-RAW, the very short half-life of the peptide greatly limits its effectiveness, as exemplified by the high concentrations (10–100 µM) needed to inhibit EphB4-ephrin-B2 interaction in cell culture, [33], [36], [37]. We used three strategies to improve TNYL-RAW stability in cell culture and circulating half-life: fusion with Fc, complexation with streptavidin and covalent coupling to 40 KDa polymeric PEG molecules. Fusion with Fc has been successfully used to improve the stability and pharmacokinetic properties of numerous prot ...", "note": "Square brackets hold non-standard residues; d marks the D form. Peptide text beside a SMILES is read from it. * marks the point of attachment. Biotin = O=C1N[C@H]2[C@H](CS[C@H]2CCCCC(=O)*)N1; Ahx = NCCCCCC(=O)O", "data": [{"smiles": "CC[C@H](C)[C@H](NC(=O)[C@@H]1CCCN1C(=O)CNC(=O)[C@H](CC(N)=O)NC(=O)[C@@H]1CCCN1C(=O)[C@H](CO)NC(=O)[C@H](Cc1ccccc1)NC(=O)[C@H](CC(C)C)NC(=O)[C@H](Cc1ccc(O)cc1)NC(=O)[C@H](CC(N)=O)NC(=O)[C@@H](N)[C@@H](C)O)C(=O)N[C@@H](C)C(=O)N[C@@H](CCCNC(=N)N)C(=O)N[C@@H](C)C(=O)N[C@@H](Cc1c[nH]c2ccccc12)C(=O)NCCCCCC(=O)N[C@@H](CCCCNC(=O)CCCC[C@@H]1SC[C@@H]2NC(=O)N[C@@H]21)C(N)=O", "note": "[TNYL-RAW] (H-TNYLFSPNGPIARAW[Ahx]K(Biotin)-NH2; N-terminus and C-terminus assumed)", "values": [{"measurement": "Peptide concentrations needed to substantially inhibit ephrin-B2-induced EphB4 tyrosine phosphorylation and downstream effects / EphB4-ephrin-B2 interaction in cultured cells", "value": "10 to 100", "unit": "µM"}]}]}
